{
  "source": "ChEMBL document CHEMBL3808302",
  "about": "“Novel Inhibitors of Toxin HipA Reduce Multidrug Tolerant Persisters” (ACS Med Chem Lett, 2016)",
  "key": {"[1]": {"system": "Escherichia coli", "test": "Cytotoxicity against Escherichia coli K-12 MG1655 cells at 250 uM", "format": "organism-based"}, "[2]": {"system": "Escherichia coli K-12", "test": "Inhibition of HipA in Escherichia coli K-12 MG1655 assessed as reduction of persister fraction incubated for 8 hrs in presence of kanamycin relative to control"}, "[3]": {"system": "T1, Serine/threonine-protein kinase toxin HipA (Escherichia coli (strain K12)), P23874 [D309Q]", "T1 sequence (whole entry)": "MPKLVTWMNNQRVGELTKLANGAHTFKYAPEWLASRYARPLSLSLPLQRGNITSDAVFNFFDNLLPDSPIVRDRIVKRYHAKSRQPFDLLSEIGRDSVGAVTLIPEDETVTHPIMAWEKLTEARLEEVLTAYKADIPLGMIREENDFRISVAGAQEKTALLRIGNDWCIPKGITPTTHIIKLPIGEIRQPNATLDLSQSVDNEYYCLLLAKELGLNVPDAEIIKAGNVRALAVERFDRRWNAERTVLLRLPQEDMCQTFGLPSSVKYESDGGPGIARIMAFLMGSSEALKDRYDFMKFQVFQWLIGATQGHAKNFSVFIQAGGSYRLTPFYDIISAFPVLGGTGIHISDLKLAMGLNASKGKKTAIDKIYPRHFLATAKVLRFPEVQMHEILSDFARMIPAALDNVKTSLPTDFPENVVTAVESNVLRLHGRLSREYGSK", "test": "Binding affinity to Escherichia coli HipA D309Q mutant expressed in Escherichia coli BL21 (DE3) assessed as fast-on/fast-off type binding at 6.25 to 100 uM by surface plasmon resonance assay"}, "[4]": {"system": "Escherichia coli K-12", "test": "Inhibition of HipA in Escherichia coli K-12 MG1655 assessed as reduction of persister fraction at 250 uM incubated for 8 hrs in presence of ampicillin relative to control"}, "[5]": {"test": "(§1) Inhibition of HipA in Escherichia coli K-12 MG1655 assessed as reduction of persister fraction incubated for 8 hrs in presence of kanamycin"}, "[6]": {"system": "Escherichia coli K-12", "test": "as §1"}, "[7]": {"test": "(§2) Inhibition of HipA in Escherichia coli K-12 MG1655 assessed as reduction of persister fraction incubated for 8 hrs in presence of ampicillin"}, "[8]": {"system": "Escherichia coli K-12", "test": "as §2"}, "[9]": {"target": "Serine/threonine-protein kinase toxin HipA (Escherichia coli (strain K12), UniProt P23874, D309Q)", "test": "(§3) Binding affinity to Escherichia coli HipA D309Q mutant expressed in Escherichia coli BL21 (DE3) by surface plasmon resonance assay"}, "[10]": {"system": "T1, Serine/threonine-protein kinase toxin HipA (Escherichia coli (strain K12)), P23874 [D309Q]", "test": "as §3"}, "[11]": {"system": "Escherichia coli", "test": "Antipersistence effect in hipA knockout Escherichia coli assessed as reduction of persister fraction at 200 uM in presence of ampicillin", "format": "functional, organism-based"}, "[12]": {"system": "T1, Serine/threonine-protein kinase toxin HipA (Escherichia coli (strain K12)), P23874 [D309Q]", "test": "Binding affinity to Escherichia coli HipA D309Q mutant expressed in Escherichia coli BL21 (DE3) assessed as slow-on/fast-off type binding at 0.00015 to 8.75 uM by surface plasmon resonance assay"}, "[13]": {"system": "T1, Serine/threonine-protein kinase toxin HipA (Escherichia coli (strain K12)), P23874 [D309Q]", "test": "Binding affinity to Escherichia coli HipA D309Q mutant expressed in Escherichia coli BL21 (DE3) assessed as slow-on/fast-off type binding at 3.125 to 87.5 uM by surface plasmon resonance assay"}, "[14]": {"system": "T1, Serine/threonine-protein kinase toxin HipA (Escherichia coli (strain K12)), P23874 [D309Q]", "test": "Binding affinity to Escherichia coli HipA D309Q mutant expressed in Escherichia coli BL21 (DE3) assessed as slow-on/slow-off type binding at 3.125 to 100 uM by surface plasmon resonance assay"}},
  "note": "Activity calls are given as the source filed them. No cut-off for these calls is given here.",
  "data": [
    {"smiles": "CCN1CCN(CCNC(=O)c2cccc(Nc3cc(-c4ccccc4)ncn3)c2)CC1", "values": [
      {"measurement": "Activity", "setting": "[1]", "result": "Non-toxic"},
      {"measurement": "fold change (FC)", "setting": "[2]", "result": 5},
      {"measurement": "Activity", "setting": "[3]", "result": "Active"},
      {"measurement": "fold change (FC)", "setting": "[4]", "result": 5},
      {"measurement": "EC50", "setting": "[5]", "result": 111, "unit": "µM"},
      {"measurement": "inhibition", "setting": "[6]", "result": "Dose-dependent effect"},
      {"measurement": "EC50", "setting": "[7]", "result": 126, "unit": "µM"},
      {"measurement": "inhibition", "setting": "[8]", "result": "Dose-dependent effect"},
      {"measurement": "Kd", "setting": "[9]", "result": 54, "unit": "µM"},
      {"measurement": "Activity", "setting": "[10]", "result": "Dose-dependent effect"}
    ]},
    {"smiles": "CCc1ccc(C2C(C(=O)c3ccc(OC)cc3)=C(O)C(=O)N2CCc2c[nH]c3ccccc23)cc1", "note": "(stereo not drawn)", "values": [
      {"measurement": "Activity", "setting": "[1]", "result": "Non-toxic"},
      {"measurement": "Activity", "setting": "[11]", "result": "inactive"},
      {"measurement": "Activity", "setting": "[12]", "result": "Active"},
      {"measurement": "fold change (FC)", "setting": "[2]", "result": "> 1"},
      {"measurement": "fold change (FC)", "setting": "[4]", "result": 5},
      {"measurement": "EC50", "setting": "[5]", "result": 28, "unit": "µM"},
      {"measurement": "inhibition", "setting": "[6]", "result": "Dose-dependent effect"},
      {"measurement": "EC50", "setting": "[7]", "result": 46, "unit": "µM"},
      {"measurement": "inhibition", "setting": "[8]", "result": "Dose-dependent effect"},
      {"measurement": "Activity", "setting": "[13]", "result": "Active"},
      {"measurement": "Kd", "setting": "[9]", "result": 0.27, "unit": "µM"},
      {"measurement": "Activity", "setting": "[10]", "result": "Dose-dependent effect"}
    ]},
    {"smiles": "CCOC(=O)c1ccc(NC(=O)CSc2nnc(CSc3nc(C)cc(C)n3)o2)cc1", "values": [
      {"measurement": "Activity", "setting": "[1]", "result": "Non-toxic"},
      {"measurement": "Activity", "setting": "[12]", "result": "Active"},
      {"measurement": "fold change (FC)", "setting": "[2]", "result": 3},
      {"measurement": "fold change (FC)", "setting": "[4]", "result": 2},
      {"measurement": "EC50", "setting": "[5]", "result": 43, "unit": "µM"},
      {"measurement": "inhibition", "setting": "[6]", "result": "Dose-dependent effect"},
      {"measurement": "EC50", "setting": "[7]", "result": 116, "unit": "µM"},
      {"measurement": "inhibition", "setting": "[8]", "result": "Dose-dependent effect"},
      {"measurement": "Activity", "setting": "[13]", "result": "Active"},
      {"measurement": "Kd", "setting": "[9]", "result": 35, "unit": "µM"},
      {"measurement": "Activity", "setting": "[10]", "result": "Dose-dependent effect"}
    ]},
    {"smiles": "COc1cc(NC(=O)c2cc3nc(-c4ccc(F)cc4)cc(C)n3n2)cc([N+](=O)[O-])c1", "values": [
      {"measurement": "Activity", "setting": "[1]", "result": "Non-toxic"},
      {"measurement": "fold change (FC)", "setting": "[2]", "result": 5},
      {"measurement": "fold change (FC)", "setting": "[4]", "result": 5},
      {"measurement": "EC50", "setting": "[5]", "result": 101, "unit": "µM"},
      {"measurement": "inhibition", "setting": "[6]", "result": "Dose-dependent effect"},
      {"measurement": "EC50", "setting": "[7]", "result": 84, "unit": "µM"},
      {"measurement": "inhibition", "setting": "[8]", "result": "Dose-dependent effect"},
      {"measurement": "Kd", "setting": "[9]", "result": 43, "unit": "µM"},
      {"measurement": "Activity", "setting": "[10]", "result": "Dose-dependent effect"},
      {"measurement": "Activity", "setting": "[14]", "result": "Active"}
    ]}
  ]
}
